Where a name gives a salt, the structure may show the parent alone.
Experiments:
Assay type in all cases: cell-based, human
PPC-1 cells [1] = assay: Annexin V apoptosis of PPC-1 cells with CH-11 and sensitizer, with or without zVAD-fmk; conditions: zVAD-fmk 100 μM, annexin V staining
Description: (§1) FIG. 6. Characterization of the mechanism of FAS-sensitizing compounds. (A) PPC-1 cells (1×10^5) were seeded in 24 well plates. The next day, cells were treated with CH-11 antibody (100 ng/mL) and 30 μM 6094911, 5809354, or 5569100 with (square) or without (diamond) caspase inhibitor z-VAD-fmk (100 μM). Apoptosis was measured 24 hours later by Annexin V staining, expressing data as percentage of Annexin V-negative (“viable”) cells (mean+SD) (n=3). (B) PPC-1 cells (2×10^5) were seeded in 6 well plates and co-transfected with plasmids encoding Bcl-XL, Crm A, or empty vector along with a green fluorescent protein (GFP) encoding plasmid to identify successfully transfected cells. After 48 hours, cells were treated with CH-11 antibody (100 ng/mL) and 6094911 (30 μM), 5809354 (30 μM), or 5569100 (15 μM). As a positive control, transfected cells were treated with staurosporine (0.5 μM) (STS). Apoptotic cells were identified by morphological assessment of the GFP-positive cells, and data were expressed as the percentage of nonapoptotic (“viable”) cells (mean+SD) (n=3).
Cell death assays. Cell viability was measured by MTT and MTS assays, essentially as described in Schimmer et al. (2004). Absorbance readings were plotted against a standard curve to derive the corresponding cell number, and cell viability was expressed as a percentage relative to untreated cells. Apoptosis was measured by flow cytometric analysis of Annexin V surface expression after staining cells with FITC-anti-Annexin V and propidium iodide (PI) (Biovision, Mountain View, Calif.), as described in Pederson et al. (2002).
To further assess the mechanism of the 8 compounds that selectively modulated tumor sensitivity to extrinsic pathway stimuli, the effects of benzoyl-Val-Ala-Asp-fluoromethylketone (zVAD-fmk), a broad-spectrum irreversible inhibitor of caspase-family proteases (Enzyme Systems, Dublin, Calif.) was tested. Accordingly, PPC-1 cells were treated with CH-11 and sensitizers such as 6094911, 5809354, and 5569100 with and without zVAD-fmk (100 μM) for […]. Apoptosis was then measured by annexin V staining.

FAS or TRAIL receptors = assay: Surface expression of FAS or TRAIL receptors by flow cytometry; conditions: PPC-1 cells, flow cytometry (data not shown)
From the text: Furthermore, since these compounds sensitize to both FAS and TRAIL, they presumably act distal to death receptors.

PPC-1 cells [2] = assay: Apoptosis of PPC-1 cells transfected with CrmA or Bcl-XL, treated with CH-11 and compound; conditions: for protection by Bcl-XL against apoptosis: PPC-1 cells transfected with Bcl-XL; for protection by CrmA against apoptosis induced by CH-11 plus compound: PPC-1 cells transfected with CrmA
Description: as §1
Cell transfections. PPC-1 cells (2×10^5) were seeded in 35 mm diameter plates in RPMI with 10% FCS. The next day the cells were co-transfected using Lipofectamine Plus (Invitrogen, Carlsbad, Calif.) with 0.5 μg GFP-encoding plasmid pEGFP (Invitrogen) in combination with 1.5 μg of plasmids encoding Bcl-XL, the viral caspase-8 inhibitor Crm A, or empty vector. At 2 days post-transfection, cells were incubated with various concentrations of CH-11 antibody and the test compounds for 24 hours, then the percentage apoptosis was scored by UV-microscopic analysis of the GFP-positive cells, counting a minimum of 200 cells. Cells that had rounded up and were floating in the medium were counted as non-viable, while cells that remained adherent to the plate with normal morphological features were counted as viable.
To further address the specificity of the compounds for the extrinsic pathway, the effects of selective apoptosis inhibitory genes were examined. For these experiments, PPC-1 cells were transfected with plasmids encoding CrmA, a viral protein that blocks the extrinsic pathway by inhibiting caspase-8 (Zhou et al., 1997) or encoding Bcl-xL, a mitochondria-targeting protein that blocks the intrinsic pathway by inhibiting release of cytochrome c (Boise et al., 1993; Kharbanda et al., 1997). After transfection, cells were treated with CH-11 antibody and compounds 6094911, 5809354, or […] scoring the percentage of apoptotic cells among the successfully transfected cells as determined by co-transfection of a GFP-marker plasmid.

4-(4-chloro-2-methylphenoxy)-N-hydroxybutanamide [compound 5809354]
effect of zVAD-fmk on sensitization to CH-11 (PPC-1 cells [1]): zVAD-fmk blocked sensitization to CH-11 | surface expression of FAS or TRAIL receptors (FAS or TRAIL receptors): did not change | protection by Bcl-XL against apoptosis (PPC-1 cells [2]): no protective effect | protection by CrmA against apoptosis induced by CH-11 plus compound (PPC-1 cells [2]): almost completely protected

CCn1c(=N)n(CC(=O)c2cc(C(C)(C)C)c(O)c(C(C)(C)C)c2)c2ccccc21 [compound 5569100, 1-(3,5-di-tert-butyl-4-hydroxyphenyl)-2-(3-ethyl-2-imino-2,3-dihydro-1H-benzo[d]imidazol-1-yl)ethanone hydrobromide]
effect of zVAD-fmk on sensitization to CH-11 (PPC-1 cells [1]): zVAD-fmk blocked sensitization to CH-11 | surface expression of FAS or TRAIL receptors (FAS or TRAIL receptors): did not change | protection by Bcl-XL against apoptosis (PPC-1 cells [2]): no protective effect | protection by CrmA against apoptosis induced by CH-11 plus compound (PPC-1 cells [2]): almost completely protected

CC(=O)CC(=O)Nc1ccc(Cl)c(C(F)(F)F)c1 [compound 6094911, N-[4-chloro-3-(trifluoromethyl)phenyl]-3-oxobutanamide]
effect of zVAD-fmk on sensitization to CH-11 (PPC-1 cells [1]): zVAD-fmk blocked sensitization to CH-11 | surface expression of FAS or TRAIL receptors (FAS or TRAIL receptors): did not change | protection by Bcl-XL against apoptosis (PPC-1 cells [2]): no protective effect | protection by CrmA against apoptosis induced by CH-11 plus compound (PPC-1 cells [2]): almost completely protected

CN[C@@H]1C[C@H]2O[C@@](C)([C@@H]1OC)n1c3ccccc3c3c4c(c5c6ccccc6n2c5c31)C(=O)NC4 [staurosporine, reference compound]
protection by Bcl-XL against apoptosis (PPC-1 cells [2]): Bcl-XL but not Crm A protected
